The subject of one experiment is rat stroke model. As to conditions: cited from earlier work.
A further experiment relates to neointimal formation. As to conditions: rats; cited from earlier work.
The test system of experiment [1] is congestive heart failure in Dahl salt-sensitive rats. As to conditions: cited from earlier work.
A further experiment concerns the target ROCK1 (Homo sapiens (Human), UniProt Q13464). Nature of the experiment: ROCK assay (LABCHIP peptide phosphorylation), ROCK1. The class given is biochemical. Particulars: 5 μM ATP, 1.5 μM peptide substrate; read-out: ROCK1 IC50.
In a further experiment the target is ROCK2 (Homo sapiens (Human), UniProt O75116). The experiment can be described thus: ROCK assay (LABCHIP peptide phosphorylation), ROCK2. The class given is biochemical. Particulars: 5 μM ATP, 1.5 μM peptide substrate.
Sequence of ROCK2 (O75116 whole entry, species assumed): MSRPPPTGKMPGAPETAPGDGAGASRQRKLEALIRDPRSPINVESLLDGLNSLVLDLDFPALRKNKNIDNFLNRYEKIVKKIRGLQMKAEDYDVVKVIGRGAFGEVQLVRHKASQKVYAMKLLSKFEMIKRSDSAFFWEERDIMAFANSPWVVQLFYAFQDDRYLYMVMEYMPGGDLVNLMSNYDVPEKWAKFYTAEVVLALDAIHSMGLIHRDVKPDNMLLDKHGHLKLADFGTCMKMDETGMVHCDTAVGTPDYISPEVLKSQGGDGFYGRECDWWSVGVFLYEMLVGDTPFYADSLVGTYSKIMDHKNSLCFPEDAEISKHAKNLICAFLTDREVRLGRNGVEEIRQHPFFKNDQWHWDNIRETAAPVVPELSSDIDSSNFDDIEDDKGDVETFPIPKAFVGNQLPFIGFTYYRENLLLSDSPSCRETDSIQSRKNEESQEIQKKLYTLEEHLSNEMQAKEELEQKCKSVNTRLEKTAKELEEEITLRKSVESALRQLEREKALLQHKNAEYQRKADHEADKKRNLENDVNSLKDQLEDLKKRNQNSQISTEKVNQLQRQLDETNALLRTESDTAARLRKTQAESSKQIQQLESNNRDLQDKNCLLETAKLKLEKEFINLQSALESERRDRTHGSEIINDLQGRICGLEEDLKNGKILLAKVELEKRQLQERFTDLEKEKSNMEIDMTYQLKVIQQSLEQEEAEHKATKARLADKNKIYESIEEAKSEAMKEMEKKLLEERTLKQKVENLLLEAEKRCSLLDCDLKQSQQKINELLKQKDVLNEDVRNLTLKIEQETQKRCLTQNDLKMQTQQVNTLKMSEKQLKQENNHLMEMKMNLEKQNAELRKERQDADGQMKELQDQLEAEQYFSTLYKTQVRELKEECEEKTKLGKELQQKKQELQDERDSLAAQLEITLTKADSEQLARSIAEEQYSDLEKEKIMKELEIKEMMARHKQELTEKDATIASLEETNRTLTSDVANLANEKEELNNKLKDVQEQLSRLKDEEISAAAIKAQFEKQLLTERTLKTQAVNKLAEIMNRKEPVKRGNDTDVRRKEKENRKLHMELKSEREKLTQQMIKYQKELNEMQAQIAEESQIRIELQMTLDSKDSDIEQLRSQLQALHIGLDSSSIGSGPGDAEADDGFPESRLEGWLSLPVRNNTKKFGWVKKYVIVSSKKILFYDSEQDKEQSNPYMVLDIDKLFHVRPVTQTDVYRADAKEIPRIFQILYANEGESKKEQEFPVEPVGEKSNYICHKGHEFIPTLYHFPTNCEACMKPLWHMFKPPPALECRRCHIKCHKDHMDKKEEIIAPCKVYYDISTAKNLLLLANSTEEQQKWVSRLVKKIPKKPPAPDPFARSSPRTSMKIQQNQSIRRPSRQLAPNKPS

Sequence of ROCK1 (Q13464 whole entry, species assumed): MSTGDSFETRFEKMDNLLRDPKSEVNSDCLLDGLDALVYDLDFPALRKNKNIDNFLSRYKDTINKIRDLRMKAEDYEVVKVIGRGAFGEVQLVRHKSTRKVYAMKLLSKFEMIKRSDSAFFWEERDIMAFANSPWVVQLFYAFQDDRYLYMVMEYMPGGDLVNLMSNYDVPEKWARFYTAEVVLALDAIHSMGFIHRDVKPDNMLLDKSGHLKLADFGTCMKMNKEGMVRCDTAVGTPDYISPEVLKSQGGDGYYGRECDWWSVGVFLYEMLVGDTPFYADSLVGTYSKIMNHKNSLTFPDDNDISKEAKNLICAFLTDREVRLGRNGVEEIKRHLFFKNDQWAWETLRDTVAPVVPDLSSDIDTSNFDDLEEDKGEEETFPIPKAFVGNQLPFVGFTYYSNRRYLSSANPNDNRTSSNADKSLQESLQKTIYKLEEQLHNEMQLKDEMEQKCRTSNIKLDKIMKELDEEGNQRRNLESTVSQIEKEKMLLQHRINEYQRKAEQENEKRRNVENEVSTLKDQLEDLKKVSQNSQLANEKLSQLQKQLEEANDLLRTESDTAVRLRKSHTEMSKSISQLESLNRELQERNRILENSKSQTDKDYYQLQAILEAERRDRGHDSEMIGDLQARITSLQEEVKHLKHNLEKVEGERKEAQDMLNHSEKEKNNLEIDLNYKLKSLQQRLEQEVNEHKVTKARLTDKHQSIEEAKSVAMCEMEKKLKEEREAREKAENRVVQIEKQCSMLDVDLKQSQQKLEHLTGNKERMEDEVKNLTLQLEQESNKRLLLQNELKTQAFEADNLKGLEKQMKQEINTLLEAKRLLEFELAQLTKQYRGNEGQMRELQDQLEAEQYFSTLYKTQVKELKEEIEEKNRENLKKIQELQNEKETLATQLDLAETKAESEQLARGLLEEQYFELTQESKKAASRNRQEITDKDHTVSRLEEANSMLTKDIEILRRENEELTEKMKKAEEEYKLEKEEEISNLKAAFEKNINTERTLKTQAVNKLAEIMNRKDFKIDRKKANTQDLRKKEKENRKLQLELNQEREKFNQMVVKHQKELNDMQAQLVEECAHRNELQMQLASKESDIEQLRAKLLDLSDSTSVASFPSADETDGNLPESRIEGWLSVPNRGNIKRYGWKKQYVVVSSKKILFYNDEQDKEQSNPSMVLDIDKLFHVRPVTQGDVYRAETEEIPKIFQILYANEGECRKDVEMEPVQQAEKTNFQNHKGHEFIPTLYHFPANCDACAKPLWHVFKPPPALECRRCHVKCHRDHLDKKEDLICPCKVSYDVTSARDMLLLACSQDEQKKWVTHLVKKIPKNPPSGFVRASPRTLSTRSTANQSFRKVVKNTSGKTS

For `O=S(=O)(c1cccc2cnccc12)N1CCCNCC1` [fasudil], the “infarct size and neurologic deficit” value in the experiment with rat stroke model was “reduce both the infarct size and neurologic deficit”.

For the compound `C[C@@H](N)[C@H]1CC[C@H](C(=O)Nc2ccncc2)CC1` [Example Y-27632], in the experiment on neointimal formation, the neointimal formation result is given as “inhibited neointimal formation”. Besides, in experiment [1], the “ventricular hypertrophy, fibrosis and function” value was “improve ventricular hypertrophy, fibrosis and function”.

Consider `Cc1noc(-c2ccc(C(C)(C)O)cc2)c1C(=O)Nc1ccc(-c2n[nH]c(=O)c3ccccc23)cc1` [Example 223, 5-[4-(2-hydroxypropan-2-yl)phenyl]-3-methyl-N-[4-(4-oxo-3,4-dihydrophthalazin-1-yl)phenyl]-1,2-oxazole-4-carboxamide], for which the IC50 on ROCK1 and against ROCK2 was 0.0001 to 0.1 µM each time.

With `O=C(Nc1ccc(-c2n[nH]c(=O)c3ccccc23)cc1)c1nc2ncccn2n1` [Example 112, N-[4-(4-oxo-3,4-dihydrophthalazin-1-yl)phenyl]-[1,2,4]triazolo[1,5-a]pyrimidine-2-carboxamide], the 50% inhibitory concentration (IC50) (commonly the concentration needed to halve the response being measured) is 1 to 50 µM on ROCK1 and 0.101 to 1 µM at ROCK2.

As for `O=C(Nc1ccc(-c2n[nH]c(=O)c3ccccc23)cc1)c1cnn(-c2ccccc2)c1C(F)(F)F` [Example 190, N-[4-(4-oxo-3,4-dihydrophthalazin-1-yl)phenyl]-1-phenyl-5-(trifluoromethyl)-1H-pyrazole-4-carboxamide], the half-inhibitory concentration (IC50) at ROCK1 and against ROCK2 was 0.0001 to 0.1 µM throughout.

As to `O=C(Nc1ccc(-c2n[nH]c(=O)c3ccccc23)cc1)c1nn(CC2CCN(C(=O)OCCF)CC2)c2ccccc12` [Example 350, 2-Fluoroethyl 4-[(3-{[4-(4-oxo-3,4-dihydrophthalazin-1-yl)phenyl]carbamoyl}-1H-indazol-1-yl)methyl]piperidine-1-carboxylate], the IC50 at ROCK1 and against ROCK2 was 0.0001 to 0.1 µM in each case.

Turning to `O=C(Nc1ccc(-c2n[nH]c(=O)c3ccccc23)cc1)c1ccc(N2CCOCC2)cc1` [Example 63, 4-(morpholin-4-yl)-N-[4-(4-oxo-3,4-dihydrophthalazin-1-yl)phenyl]benzamide], the IC50 is 0.101 to 1 µM at ROCK1 and 0.0001 to 0.1 µM against ROCK2.

In the case of `CC(C)(C)OC(=O)N1CC(Cn2nc(C(=O)Nc3ccc(-c4n[nH]c(=O)c5ccccc45)c(Cl)c3)c3ccccc32)C1` [Example 316, tert-butyl 3-[(3-{[3-chloro-4-(4-oxo-3,4-dihydrophthalazin-1-yl)phenyl]carbamoyl}-1H-indazol-1-yl)methyl] azetidine-1-carboxylate], the IC50 was in the range of 0.101 to 1 µM on ROCK1 and 0.0001 to 0.1 µM at ROCK2.

For `COc1ccc2c(-c3ccc(NC(=O)c4cn5ccccc5n4)cc3)n[nH]c(=O)c2c1` [Example 370, N-(4-(6-Methoxy-4-oxo-3,4-dihydrophthalazin-1-yl)phenyl)imidazo[1,2-a]pyridine-2-carboxamide], the IC50 on ROCK1 was 1 to 50 µM; against ROCK2 it was 0.0001 to 0.1 µM.

The record behind these values is patent US9926282B2, “Phthalazinones and isoquinolinones as rock inhibitors” (BRISTOL-MYERS SQUIBB COMPANY, priority 2013, dated 2018).
